Reference: patent EP4483904A1, “POLYOXOMETALATES AS MEMBRANE CARRIERS” (Universität Wien, priority 2023, dated 2025)
Blank lines part the entries; values can stand above or below the compound they belong to.

Experiments:
[1] = HPTS/DPX assay of membrane transport in EYPC vesicles; format: biochemical; details: Measured by HPTS/DPX assay
[2] = Stability investigation by NMR spectroscopy (hydrolysis in buffer/media); format: physicochemical; details: for Hydrolysis/Stability pH 7.5: 10 mM Hepes or 10 mM Tris, pH 7.4; for Hydrolysis/Stability pH 7.5 / Hydrolysis/Stability pH 5.5: 107 mM NaCl; for Hydrolysis/Stability pH 5.5: 10 mM Mes; for long-term stability in aqueous solution: slightly acidic and neutral pH, 24 h and longer, NMR
Description: POMs of the globular Keggin and planar Anderson archetype and with varying charge status from -3 to -8 (Fig. 1) were selected. To offset the known [XW12O40]^n- (X = hetero-ion) hydrolysis propensity in aqueous solution, most pronounced at neutral pH, more highly charged mixed-metal derivatives (Fig. 1,lefthand side) were also included. The latter are obtained by hydrolytic removal of one W=O^4+ unit from the Keggin structure and the subsequent incorporation of an addenda metal to fill the cavity of the monolacunary intermediate. In detail, the following POM anions were studied (as acid or sodium, potassium, or tetraalkylammonium salts), see Fig. 1: [α-P^VW^VI12O40]^3- ([PW12]^3-), [α-Si^IVW^VI12O40]^4- ([SiW12]^4-), [α-Al^IIIW^VI12O40]^5- ([AlW12]^5-), [α-P^VV^VW^VI11O40]^4- ([PVW11]^4-), [α-Si^IVMo^VIW^VI11O40]^4- ([SiMoW11]^4-), [α- HAl^IIIGe^IVW^VI11O39(H2O)]^5- ([GeAlW11]^5-), [{α-P^VW^VI11O39Zr^IV(µ-OH)(H2O)}2]^8- ([(PZrW11)2]^8-), and [Al^III(OH)6Mo^VI6O18]^3- ([AlMo6]^3-). First, their long-term (24 h and longer) stability in aqueous solution (slightly acidic and neutral) was investigated by applying the active NMR nuclei in their composition (see).

[3] = Transport experiments in CF-loaded zwitterionic EYPC vesicles (CF fluorescence, Hill analysis); format: biochemical; design: key to membrane transport activity: - - -: No detectable activity at pH 5.5 and 7.4; details: for membrane transport activity: pH 5.5 and 7.4, heptaArg, protamine, polyArg (for [AlMo6]^3- heptaArg and protamine only); for behaviour towards liposomes at strongly acidic pH: pH 1.2
Protocol: The dry film was rehydrated with 1 mL buffer (50 mM CF, 10 mM Hepes, pH 7.4 or 50 mM CF, 10 mM Tris, pH 7.4) for 30 min at room temperature, subjected to freeze-thaw cycles (7 times) and extrusions (15 times) through a polycarbonate membrane (pore size 100 nm). Extravesicular components were removed by size exclusion chromatography (NAP-25 column Sephadex G-25 DNA grade) with 10 mM Hepes, 107 mM NaCl, pH 7.4 or 10 mM Hepes, 107 mM NaCl, pH 7.4. Phospholipid concentration was calculated by the Stewart assay. […]
Vesicles stock solutions (5-10 µL) were diluted with the corresponding buffer in a disposable plastic cuvette and gently stirred (total volume 2000 µL, final lipid concentration 13 µM). […] Fluorescence intensities were normalized to fractional emission as: I(t) = (It −I0)/(I∞ −I0) [formula]
Where I0 = It before POM addition and […] = I∞ after lysis. For Hill analysis, It before lysis was defined as transport activity, Y, and plotted against POM concentration, c, and fitted to the Hill equation (2), to afford the activity in absence of POM, Y0, the maximal activity, Ymax, the concentration needed to achieve 50 % of maximal activity, EC50, and the Hill coefficient, n. Y = Y0 + (Ymax −Y0)/(1 + (((EC50)/(c)))^n) [formula]
In the transport measurements, where different carriers (POMs) are tested with the same cargo, the activator efficiency (E) is determined by their capacity to transport the impermeable cargo to the intravesicular region and is characterized by Ymax, its maximal activity, and EC50, the effective activator concentration. An ideal carrier reaches high Ymax at low EC50. To count both factors, the activator efficiency is defined as: E = Ymax (pEC50)/(f) [formula] were pEC50 is the negative logarithm of the EC50, and fa scaling factor, which was set to 20.6 to calibrate the highest (previously known) activation efficiency, E, as 10.
The capability of POMs to act as membrane carriers was explored first in large unilamellar vesicles (LUVs), loaded with carboxyfluorescein (CF). We selected […] representative cationic peptides, heptaarginine (heptaArg), heptalysine (heptaLys), protamine, and polyarginine (polyArg), as test cargos. Inside the LUVs, the CF dye was encapsulated at self-quenching concentrations. With a suitable carrier, heptaArg can be taken up into the vesicles, bind with entrapped CF, and shuttle back to the exterior, spreading the previously quenched CF, and thereby restoring its fluorescence (Fig. 3). In the time-resolved fluorescence experiments, to test whether a POM acts as molecular carrier, the CF emission was continuously monitored during the addition of the inorganic carrier (t = 60 s) and after injection the impermeable heptaArg (t = 120 s). At the end of the experiment (t = 600 s), the surfactant Triton X-100 was added to release all the entrapped CF and allow normalization of the intensity data (Fig. 4a).

[4] = EYPC vesicles, 0.1 µM polyArg, neutral pH 7.4
[5] = EYPC vesicles, 0.1 µM polyArg, neutral pH 7.4, read-out: PolyArg EC50
[6] = EYPC vesicles, 1 µM protamine, neutral pH 7.4
[7] = Tris-HCl pH 7.5 freshly prepared

EC50 ([1]; 0.1 µM polyArg, pH 7.4, read-out: PolyArg EC50): 2.6 µM
EC50 ([1]; 1 µM protamine, pH 7.4, read-out: Protamine EC50): 11 µM
EC50 ([1]; 10 µM heptaArg, pH 7.4, read-out: HeptaArg EC50): 48 µM
Hydrolysis/Stability pH 7.5 [2]: stable
Hydrolysis/Stability pH 5.5 [2]: stable
Compound: B12Br12^2-
PolyArg E (activation efficiency) ([1]; 0.1 µM polyArg, pH 7.4): 12
PolyArg Ymax ([1]; 0.1 µM polyArg, pH 7.4): 94%
Protamine E (activation efficiency) ([1]; 1 µM protamine, pH 7.4): 8.0
Protamine Ymax ([1]; 1 µM protamine, pH 7.4): 84%
HeptaArg E (activation efficiency) ([1]; 10 µM heptaArg, pH 7.4): 6.1
HeptaArg Ymax ([1]; 10 µM heptaArg, pH 7.4): 95%

Hydrolysis/Stability pH 7.5 [2]: to [Si^VW^VI8O39]^8-
hydrolysis above pH 4.5 [2]: rapid hydrolysis
long-term stability in aqueous solution [2]: fully hydrolyzed
Compound: K4[α-Si^IVW^VI12O40]·14H2O [[SiW12]^4-]
membrane transport activity ([3]; EYPC vesicles): - - -[jilt]
behaviour towards liposomes at strongly acidic pH [3]: showed the desired cargo transport at acidic pH, without membrane disruption
POM anions with % for parent (active) anion based on signals integration ([2]; Hepes pH 7.5 (time not given)): [Si^IVW^VI12O40]^4- and [Si^IVW^VInO39]^8- (high noise to signal ratio, correct integration of peak cannot be performed; but clearly [Si^IVW^VI11O39]^8- is predominant)

Compound: O=C(O)CCCc1ccc2ccc3cccc4ccc1c2c34 [PyBu^-, pyrenebutyrate, reference compound]
PolyArg E (activation efficiency) [3, 4]: 8.5
PolyArg Ymax [3, 4]: 91%
EC50 [3, 5]: 12 µM
Protamine E (activation efficiency) [3, 6]: 5.3
Protamine Ymax [3, 6]: 77%
EC50 ([3]; EYPC vesicles, 1 µM protamine, neutral pH 7.4, read-out: Protamine EC50): 39 µM
HeptaArg Ymax ([3]; EYPC vesicles, 10 µM heptaArg, neutral pH 7.4): 100%
HeptaArg E (activation efficiency) ([3]; EYPC vesicles, 10 µM heptaArg, neutral pH 7.4, E = Ymax(pEC50/f), f = 20.6): 4.8
EC50 ([3]; EYPC vesicles, 10 µM heptaArg, neutral pH 7.4, read-out: HeptaArg EC50): 100 µM
efficacy when the sequence of carrier-cargo addition was reversed ([3]; heptaarginine 10 µM, Fig. 12): significantly reduces its activity
Hydrolysis/Stability pH 7.5 [2]: stable
Hydrolysis/Stability pH 5.5 [2]: stable

Hydrolysis/Stability pH 7.5 [2]: stable
POM anions with % for parent (active) anion based on signals integration ([2]; Tris-HCl pH 7.5 after 1 day): [Al^IIIW^VI12O40]^5-
POM anions with % for parent (active) anion based on signals integration [2, 7]: [Al^IIIW^VI12O40]^5-
long-term stability in aqueous solution [2]: stable at neutral pH
Compound: Na5[α-Al^IIIW^VI12O40]·12H2O [[AlW12]^5-]
membrane transport activity ([3]; EYPC vesicles): - - -[j]

Hydrolysis/Stability pH 7.5 [2]: stable
Compound: (Et2NH2)8[{α-P^VW^VI11O39Zr^IV(µ-OH)(H2O)}2]·7H2O [[(PZrW11)2]^8-]
membrane transport activity ([3]; EYPC vesicles): - - -[j]
POM anions with % for parent (active) anion based on signals integration ([2]; Hepes pH 7.5 after 1 day): [{α-PW11O39Zr(µ-OH)(H2O)}2]^8-·(99 %) and [Zr(α-PW11O39)2]^10-
POM anions with % for parent (active) anion based on signals integration ([2]; Hepes pH 7.5 freshly prepared): [{α-PW11O39Zr(µ-OH)(H2O)}2]^8-·(99 %) and [Zr(α-PW11O39)2]^10-

EC50 [3, 5]: 11 µM
Hydrolysis/Stability pH 7.5 [2]: stable
POM anions with % for parent (active) anion based on signals integration ([2]; Hepes pH 7.5 after 1 day): [Al^III(OH)6MO^VI6O18]^3-
POM anions with % for parent (active) anion based on signals integration ([2]; Hepes pH 7.5 freshly prepared): [Al^III(OH)6MO^VI6O18]^3-
Compound: Na3[Al^III(OH)6Mo^VI6O18]·2H2O [[AlMo6]^3-]
PolyArg E (activation efficiency) [3, 4]: 3.1
PolyArg Ymax [3, 4]: 33%
membrane transport activity ([3]; EYPC vesicles): - - -[j]
cargo transport in CF-loaded vesicles (qualitative) ([3]; LUVs loaded with CF, added cargo): incipient transport activity, but only for polyarginine as cargo

Hydrolysis/Stability pH 5.5 [2]: to [P^VW^VI11O39]^7-
% of hydrolysis product [P^VW^VI11O39]^7- based on signals integration ([2]; Mes pH 5.5 after 1 day): 61%
POM anions with % for parent (active) anion based on signals integration ([2]; Mes pH 5.5 after 1 day): 5%
% of hydrolysis product [P^VW^VI11O39]^7- based on signals integration ([2]; Mes pH 5.5 freshly prepared): 61%
POM anions with % for parent (active) anion based on signals integration ([2]; Mes pH 5.5 freshly prepared): 4%
hydrolysis above pH 4.5 [2]: rapid hydrolysis
long-term stability in aqueous solution [2]: fully hydrolyzed
Compound: Na3[α-P^VW^VI12O40]·nH2O [[PW12]^3-]
membrane transport activity ([3]; EYPC vesicles): - - -[j,k]
behaviour towards liposomes at strongly acidic pH [3]: strong interaction and membrane disruption
POM anions with % for parent (active) anion based on signals integration ([2]; NaOAc/HOAc pH 4 after 1 day): [P^VW^VI12O40]^3- (28 %) and intermediate anions
POM anions with % for parent (active) anion based on signals integration ([2]; NaOAc/HOAc pH 4 freshly prepared): [P^VW^VI12O40]^3- (30 %) and intermediate anions

Hydrolysis/Stability pH 7.5 [2]: stable
POM anions with % for parent (active) anion based on signals integration ([2]; Tris-HCl pH 7.5 after 1 day): [HAl^IIIGe^IVW^VI11O39(H2O)] ^4-
POM anions with % for parent (active) anion based on signals integration [2, 7]: [HAl^IIIGe^IVW^VI11O39(H2O)] ^4-
long-term stability in aqueous solution [2]: stable at neutral pH
Compound: (C4H12N)4[α-HAl^IIIGe^IVW^VI11O39(H2O)]·11H2O [[GeAlW11]^5-]
membrane transport activity ([3]; EYPC vesicles): - - -[j]
